Reference: ChEMBL document CHEMBL2176989, “Design, synthesis, and pharmacological evaluation of piperidin-4-yl amino aryl sulfonamides: novel, potent, selective, orally active, and brain penetrant 5-HT₆ receptor antagonists” (J Med Chem, 2012)
The source made the active and inactive calls. The calls are words filed in the database; no cut-off is given here.

Tests used:
[1] = Ratio of drug uptake in brain to plasma in Wistar rat at 10 mg/kg, po after 1 hr; assay type: ADME, organism-based; parameters: dose 10 mg/kg, route oral; details: read-out: BPR
[2] = target: 5-hydroxytryptamine receptor 7 (Homo sapiens, UniProt P34969); assay: Binding affinity to 5HT7 receptor
[3] = AUC (0 to 24 hrs) in fasted Wistar rat at 10 mg/kg, po; assay type: ADME, organism-based; parameters: time < 24 hr, dose 10 mg/kg, route oral; details: plasma
[4] = target: T1, Alpha-1B adrenergic receptor (Homo sapiens, UniProt P35368); assay: Binding affinity to adrenergic alpha1B receptor
T1 sequence (P35368 whole entry): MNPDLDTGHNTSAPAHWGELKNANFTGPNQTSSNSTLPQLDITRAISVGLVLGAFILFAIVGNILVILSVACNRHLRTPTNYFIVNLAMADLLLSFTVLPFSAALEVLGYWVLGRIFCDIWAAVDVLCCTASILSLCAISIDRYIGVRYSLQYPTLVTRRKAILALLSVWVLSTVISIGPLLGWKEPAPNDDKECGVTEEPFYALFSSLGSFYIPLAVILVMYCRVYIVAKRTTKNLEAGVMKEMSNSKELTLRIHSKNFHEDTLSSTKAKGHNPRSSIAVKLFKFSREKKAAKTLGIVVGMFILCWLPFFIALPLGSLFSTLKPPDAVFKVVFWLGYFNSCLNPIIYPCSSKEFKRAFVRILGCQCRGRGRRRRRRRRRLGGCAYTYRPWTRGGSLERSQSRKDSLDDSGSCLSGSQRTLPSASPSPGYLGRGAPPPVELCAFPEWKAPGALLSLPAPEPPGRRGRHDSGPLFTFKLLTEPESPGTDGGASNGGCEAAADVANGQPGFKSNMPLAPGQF

[5] = Apparent volume of distribution in Wistar rat at 10 mg/kg, iv; assay type: ADME, organism-based; parameters: dose 10 mg/kg, route intravenous; details: in vivo, read-out: Vz
[6] = Cmax in fasted Wistar rat at 10 mg/kg, po; assay type: ADME, organism-based; parameters: dose 10 mg/kg, route oral; details: in vivo
Cytochrome P450 2D6 = Cytochrome P450 2D6 (Homo sapiens, UniProt P10635); assay: Inhibition of CYP2D6 in human liver microsomes using dextromethorphan as substrate after 10 mins by LC-MS/MS analysis in presence of NADPH
[7] = Half life in Wistar rat at 10 mg/kg, iv; assay type: ADME, organism-based; parameters: dose 10 mg/kg, route intravenous; details: in vivo
[8] = target: T2, 5-hydroxytryptamine receptor 3A (Homo sapiens, UniProt P46098); assay: Binding affinity to 5HT3 receptor
T2 sequence (P46098 whole entry): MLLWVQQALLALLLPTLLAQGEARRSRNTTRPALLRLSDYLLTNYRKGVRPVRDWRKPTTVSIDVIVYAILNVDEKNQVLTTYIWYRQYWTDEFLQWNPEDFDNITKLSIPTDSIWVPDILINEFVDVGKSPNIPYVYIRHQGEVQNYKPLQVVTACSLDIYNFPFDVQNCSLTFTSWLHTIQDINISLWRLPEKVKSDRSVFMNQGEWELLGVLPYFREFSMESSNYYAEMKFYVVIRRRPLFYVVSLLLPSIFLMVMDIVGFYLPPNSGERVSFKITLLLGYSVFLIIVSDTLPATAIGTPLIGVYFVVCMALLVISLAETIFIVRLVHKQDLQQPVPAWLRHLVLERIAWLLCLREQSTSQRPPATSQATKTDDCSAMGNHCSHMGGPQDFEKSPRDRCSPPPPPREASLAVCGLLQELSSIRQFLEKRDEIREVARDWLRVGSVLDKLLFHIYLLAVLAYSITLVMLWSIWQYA

[9] = target: T3, 5-hydroxytryptamine receptor 2C (Homo sapiens, UniProt P28335); assay: Binding affinity to 5HT2C receptor
T3 sequence (P28335 whole entry): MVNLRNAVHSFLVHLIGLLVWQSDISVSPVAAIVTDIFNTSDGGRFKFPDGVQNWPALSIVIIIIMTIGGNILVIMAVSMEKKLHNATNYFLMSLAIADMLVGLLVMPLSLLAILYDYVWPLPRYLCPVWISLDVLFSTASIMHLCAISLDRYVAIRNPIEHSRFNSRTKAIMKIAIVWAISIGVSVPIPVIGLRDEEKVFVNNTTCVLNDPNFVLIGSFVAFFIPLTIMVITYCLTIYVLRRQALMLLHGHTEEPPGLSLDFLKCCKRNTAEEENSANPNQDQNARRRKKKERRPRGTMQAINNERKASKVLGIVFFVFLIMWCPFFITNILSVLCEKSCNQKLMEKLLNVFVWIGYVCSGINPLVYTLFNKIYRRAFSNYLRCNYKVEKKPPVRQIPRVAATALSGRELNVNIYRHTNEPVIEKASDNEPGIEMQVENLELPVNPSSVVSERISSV

[10] = AUC (0 to 24 hrs) in Wistar rat at 10 mg/kg, iv; assay type: ADME, organism-based; parameters: time < 24 hr, dose 10 mg/kg, route intravenous; details: plasma
[11] = Clearance in Wistar rat at 10 mg/kg, iv; assay type: ADME, organism-based; parameters: dose 10 mg/kg, route intravenous; details: in vivo
[12] = Drug metabolism in Wistar rat liver microsomes at 2.5 uM at 30 mins by LC-MS/MS analysis; assay type: ADME, Microsome; details: read-out: Drug metabolism
Rattus norvegicus [13] = assay: Toxicity in po dosed Wistar rat assessed as phospholipidosis in multiple organs administered as repeated dose for 7 days; assay type: organism-based; details: in vivo, 168 h
[14] = target: 5-hydroxytryptamine receptor 6 (Homo sapiens) (UniProt P50406); assay: Antagonist activity at human recombinant 5HT6 receptor expressed in CHO cells assessed as inhibition of 5HT-induced luciferase activity after 4 hrs by reporter gene assay; assay type: functional, cell-based
[15] = target: 5-hydroxytryptamine receptor 4 (Homo sapiens, UniProt Q13639); assay: Binding affinity to 5HT4 receptor
[16] = target: 5-hydroxytryptamine receptor 2A (Homo sapiens, UniProt P28223); assay: Binding affinity to 5HT2A receptor
[17] = target: Sodium-dependent dopamine transporter (Homo sapiens, UniProt Q01959); assay: Binding affinity to dopamine transporter
[18] = target: Sodium-dependent serotonin transporter (Homo sapiens, UniProt P31645); assay: Binding affinity to SERT
[19] = Oral bioavailability in fasted Wistar rat at 10 mg/kg; assay type: ADME, organism-based; details: in vivo
Histamine H1 receptor = Histamine H1 receptor (Homo sapiens, UniProt P35367); assay: Binding affinity to histamine H1 receptor
Rattus norvegicus [20] = assay: Procognitive activity in Wistar rat assessed as reversal of time delay induced-memory deficit at 3 mg/kg, po by object recognition test; assay type: functional, organism-based; parameters: dose 3 mg/kg
[21] = target: 5-hydroxytryptamine receptor 6 (Homo sapiens) (UniProt P50406); assay: Antagonist activity at human recombinant 5HT6 receptor expressed in CHO cells assessed as inhibition of 5HT-induced luciferase activity after 4 hrs by reporter gene assay relative to control; assay type: functional, cell-based
D(2) dopamine receptor = D(2) dopamine receptor (Homo sapiens, UniProt P14416); assay: Binding affinity to dopamine D2 receptor
[22] = Tmax in fasted Wistar rat at 10 mg/kg, po; assay type: ADME, organism-based; parameters: dose 10 mg/kg, route oral; details: in vivo
Cytochrome P450 3A4 = Cytochrome P450 3A4 (Homo sapiens, UniProt P08684); assay: Inhibition of CYP3A4 in human liver microsomes using midazolam as substrate after 5 mins by LC-MS/MS analysis in presence of NADPH
[23] = Drug metabolism in human liver microsomes at 2.5 uM at 30 mins by LC-MS/MS analysis; assay type: ADME, Microsome; details: read-out: Drug metabolism
[24] = target: T4, 5-hydroxytryptamine receptor 1A (Homo sapiens, UniProt P08908); assay: Binding affinity to 5HT1A receptor
T4 sequence (P08908 whole entry): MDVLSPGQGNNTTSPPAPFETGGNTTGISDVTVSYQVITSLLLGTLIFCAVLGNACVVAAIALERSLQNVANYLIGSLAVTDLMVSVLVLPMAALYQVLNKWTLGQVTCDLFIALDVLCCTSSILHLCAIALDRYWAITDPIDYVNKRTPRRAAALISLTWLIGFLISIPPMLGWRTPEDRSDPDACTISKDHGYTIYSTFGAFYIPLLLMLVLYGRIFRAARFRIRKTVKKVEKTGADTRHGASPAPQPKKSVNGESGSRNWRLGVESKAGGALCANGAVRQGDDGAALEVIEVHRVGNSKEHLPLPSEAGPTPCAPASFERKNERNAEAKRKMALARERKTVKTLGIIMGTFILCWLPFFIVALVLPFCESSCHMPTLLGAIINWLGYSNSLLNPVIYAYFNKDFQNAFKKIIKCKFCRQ

[25] = target: Voltage-gated inwardly rectifying potassium channel KCNH2 (Homo sapiens, UniProt Q12809); assay: Displacement of [3H]astemizole from human ERG by microbeta scintillation counting
Rattus norvegicus [26] = assay: Procognitive activity in Wistar rat assessed as reversal of time delay induced-memory deficit at 1 mg/kg, po by object recognition test; assay type: functional, organism-based; parameters: dose 1 mg/kg

Sequence of 5-hydroxytryptamine receptor 6 (Homo sapiens) (P50406 whole entry): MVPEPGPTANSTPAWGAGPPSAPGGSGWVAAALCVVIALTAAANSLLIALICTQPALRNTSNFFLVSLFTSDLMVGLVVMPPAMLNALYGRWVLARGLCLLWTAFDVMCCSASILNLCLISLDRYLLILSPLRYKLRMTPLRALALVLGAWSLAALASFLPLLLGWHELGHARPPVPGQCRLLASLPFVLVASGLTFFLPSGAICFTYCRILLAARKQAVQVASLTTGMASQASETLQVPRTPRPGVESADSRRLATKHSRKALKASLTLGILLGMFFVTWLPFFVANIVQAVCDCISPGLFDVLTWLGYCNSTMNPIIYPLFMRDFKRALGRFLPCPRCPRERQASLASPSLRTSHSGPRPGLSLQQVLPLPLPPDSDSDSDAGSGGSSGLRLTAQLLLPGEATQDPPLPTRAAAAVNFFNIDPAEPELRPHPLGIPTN
Sequence of Histamine H1 receptor (P35367 whole entry): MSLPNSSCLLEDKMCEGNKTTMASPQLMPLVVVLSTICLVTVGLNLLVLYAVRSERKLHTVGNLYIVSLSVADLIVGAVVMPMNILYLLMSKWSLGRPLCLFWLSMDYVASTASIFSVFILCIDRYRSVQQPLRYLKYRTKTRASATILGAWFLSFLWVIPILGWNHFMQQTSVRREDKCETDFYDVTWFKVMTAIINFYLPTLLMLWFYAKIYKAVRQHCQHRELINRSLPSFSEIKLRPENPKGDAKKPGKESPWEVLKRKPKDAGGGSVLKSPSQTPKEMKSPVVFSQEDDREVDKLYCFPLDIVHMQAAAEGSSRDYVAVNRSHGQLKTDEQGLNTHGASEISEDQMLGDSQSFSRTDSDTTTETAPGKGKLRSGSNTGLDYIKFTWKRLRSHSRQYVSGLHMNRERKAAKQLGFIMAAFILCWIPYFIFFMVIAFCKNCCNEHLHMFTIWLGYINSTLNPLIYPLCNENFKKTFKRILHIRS
Sequence of D(2) dopamine receptor (P14416 whole entry): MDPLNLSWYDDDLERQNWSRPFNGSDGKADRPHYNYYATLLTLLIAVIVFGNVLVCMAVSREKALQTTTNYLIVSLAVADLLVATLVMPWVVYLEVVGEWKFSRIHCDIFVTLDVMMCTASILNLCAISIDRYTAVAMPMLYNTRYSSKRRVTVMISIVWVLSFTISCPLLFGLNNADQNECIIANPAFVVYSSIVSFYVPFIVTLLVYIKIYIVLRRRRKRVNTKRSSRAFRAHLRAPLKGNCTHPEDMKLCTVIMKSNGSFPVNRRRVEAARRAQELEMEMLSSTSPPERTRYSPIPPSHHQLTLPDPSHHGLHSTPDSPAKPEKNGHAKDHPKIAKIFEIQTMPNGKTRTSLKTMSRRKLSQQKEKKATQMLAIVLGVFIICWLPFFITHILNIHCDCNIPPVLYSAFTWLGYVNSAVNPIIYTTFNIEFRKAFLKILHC
Sequence of 5-hydroxytryptamine receptor 7 (P34969 whole entry): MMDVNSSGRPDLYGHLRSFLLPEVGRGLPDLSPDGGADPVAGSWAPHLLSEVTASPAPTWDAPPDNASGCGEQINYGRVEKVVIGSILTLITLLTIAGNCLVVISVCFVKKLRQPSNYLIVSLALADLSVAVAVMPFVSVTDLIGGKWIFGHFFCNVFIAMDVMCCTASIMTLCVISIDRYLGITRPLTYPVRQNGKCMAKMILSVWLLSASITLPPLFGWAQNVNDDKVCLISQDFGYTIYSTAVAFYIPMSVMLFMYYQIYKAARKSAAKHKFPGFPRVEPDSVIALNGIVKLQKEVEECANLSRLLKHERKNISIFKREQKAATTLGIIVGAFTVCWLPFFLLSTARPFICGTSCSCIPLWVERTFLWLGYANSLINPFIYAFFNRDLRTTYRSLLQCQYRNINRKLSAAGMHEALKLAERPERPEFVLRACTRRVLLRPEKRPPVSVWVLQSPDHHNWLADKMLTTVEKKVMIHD
Sequence of Voltage-gated inwardly rectifying potassium channel KCNH2 (Q12809 whole entry): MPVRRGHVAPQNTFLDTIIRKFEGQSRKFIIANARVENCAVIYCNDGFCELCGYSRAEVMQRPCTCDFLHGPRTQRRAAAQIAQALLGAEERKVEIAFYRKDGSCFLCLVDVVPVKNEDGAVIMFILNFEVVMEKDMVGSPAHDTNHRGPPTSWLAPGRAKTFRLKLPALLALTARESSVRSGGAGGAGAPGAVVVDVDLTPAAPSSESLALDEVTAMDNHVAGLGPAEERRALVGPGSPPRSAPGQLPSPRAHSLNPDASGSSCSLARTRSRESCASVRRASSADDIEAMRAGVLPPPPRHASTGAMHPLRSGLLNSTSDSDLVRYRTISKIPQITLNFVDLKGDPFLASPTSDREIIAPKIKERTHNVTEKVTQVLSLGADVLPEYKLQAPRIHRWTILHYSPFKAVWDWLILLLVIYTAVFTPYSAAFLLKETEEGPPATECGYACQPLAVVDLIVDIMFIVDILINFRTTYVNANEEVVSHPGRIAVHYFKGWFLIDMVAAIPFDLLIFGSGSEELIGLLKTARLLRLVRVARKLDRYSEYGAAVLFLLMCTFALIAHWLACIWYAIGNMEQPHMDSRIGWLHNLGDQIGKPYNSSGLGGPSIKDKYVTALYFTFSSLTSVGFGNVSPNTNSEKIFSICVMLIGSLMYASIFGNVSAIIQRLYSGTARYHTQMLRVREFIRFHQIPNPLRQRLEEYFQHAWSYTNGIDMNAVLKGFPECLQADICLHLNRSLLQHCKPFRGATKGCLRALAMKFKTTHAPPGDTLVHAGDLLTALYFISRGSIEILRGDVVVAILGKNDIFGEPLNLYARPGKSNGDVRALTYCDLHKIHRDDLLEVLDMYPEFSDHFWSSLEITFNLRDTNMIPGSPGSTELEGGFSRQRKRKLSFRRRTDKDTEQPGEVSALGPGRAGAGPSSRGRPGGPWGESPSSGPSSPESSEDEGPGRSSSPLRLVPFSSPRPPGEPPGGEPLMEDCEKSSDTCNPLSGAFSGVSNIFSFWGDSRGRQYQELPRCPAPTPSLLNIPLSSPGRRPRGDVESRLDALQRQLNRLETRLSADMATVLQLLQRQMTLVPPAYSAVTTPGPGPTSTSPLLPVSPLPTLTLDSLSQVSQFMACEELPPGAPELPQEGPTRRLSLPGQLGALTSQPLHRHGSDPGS
Sequence of 5-hydroxytryptamine receptor 4 (Q13639 whole entry): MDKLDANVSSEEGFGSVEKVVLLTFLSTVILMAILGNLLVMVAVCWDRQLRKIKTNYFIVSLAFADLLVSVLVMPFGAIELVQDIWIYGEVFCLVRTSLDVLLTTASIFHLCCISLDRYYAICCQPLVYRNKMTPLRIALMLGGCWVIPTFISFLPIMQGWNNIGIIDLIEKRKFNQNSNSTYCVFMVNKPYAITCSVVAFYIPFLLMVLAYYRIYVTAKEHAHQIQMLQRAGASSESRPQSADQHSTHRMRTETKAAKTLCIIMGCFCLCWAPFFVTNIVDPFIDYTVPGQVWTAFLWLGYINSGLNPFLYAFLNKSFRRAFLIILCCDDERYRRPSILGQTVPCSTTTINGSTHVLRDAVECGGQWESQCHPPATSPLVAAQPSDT
Sequence of Sodium-dependent dopamine transporter (Q01959 whole entry): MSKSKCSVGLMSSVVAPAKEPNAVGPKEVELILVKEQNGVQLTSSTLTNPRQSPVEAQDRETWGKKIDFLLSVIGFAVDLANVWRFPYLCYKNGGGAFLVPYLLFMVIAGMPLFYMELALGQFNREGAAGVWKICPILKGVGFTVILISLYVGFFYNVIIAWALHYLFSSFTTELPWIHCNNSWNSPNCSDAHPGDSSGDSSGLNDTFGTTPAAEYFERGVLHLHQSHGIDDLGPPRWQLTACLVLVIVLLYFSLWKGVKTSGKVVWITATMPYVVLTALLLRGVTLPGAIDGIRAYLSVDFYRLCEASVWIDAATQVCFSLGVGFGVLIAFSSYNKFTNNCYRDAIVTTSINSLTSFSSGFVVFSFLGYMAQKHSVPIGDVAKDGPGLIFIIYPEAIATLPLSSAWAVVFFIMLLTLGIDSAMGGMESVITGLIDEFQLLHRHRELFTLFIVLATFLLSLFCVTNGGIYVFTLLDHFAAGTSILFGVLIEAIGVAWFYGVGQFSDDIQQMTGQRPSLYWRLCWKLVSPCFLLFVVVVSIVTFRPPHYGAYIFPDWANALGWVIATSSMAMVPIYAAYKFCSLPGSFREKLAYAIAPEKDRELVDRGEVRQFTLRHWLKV
Sequence of Sodium-dependent serotonin transporter (P31645 whole entry): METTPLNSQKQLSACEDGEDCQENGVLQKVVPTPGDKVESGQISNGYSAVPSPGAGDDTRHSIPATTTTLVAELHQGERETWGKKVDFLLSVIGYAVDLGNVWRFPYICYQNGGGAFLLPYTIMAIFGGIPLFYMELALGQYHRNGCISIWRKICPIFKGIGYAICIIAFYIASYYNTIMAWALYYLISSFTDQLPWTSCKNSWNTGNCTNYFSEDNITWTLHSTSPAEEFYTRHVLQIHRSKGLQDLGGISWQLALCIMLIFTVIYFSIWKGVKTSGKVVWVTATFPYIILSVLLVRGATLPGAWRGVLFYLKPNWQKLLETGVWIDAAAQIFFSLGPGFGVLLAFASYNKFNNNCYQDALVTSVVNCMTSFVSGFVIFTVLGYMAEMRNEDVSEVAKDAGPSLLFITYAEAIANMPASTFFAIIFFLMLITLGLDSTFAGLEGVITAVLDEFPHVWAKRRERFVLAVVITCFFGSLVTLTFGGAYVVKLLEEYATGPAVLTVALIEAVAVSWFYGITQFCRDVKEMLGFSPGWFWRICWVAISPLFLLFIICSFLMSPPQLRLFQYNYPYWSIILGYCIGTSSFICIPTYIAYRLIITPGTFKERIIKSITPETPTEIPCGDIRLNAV

## COc1ccc(S(=O)(=O)n2cc(C)c3cc(Cl)ccc32)cc1NC1CCN(C)CC1
[1]
  Kp at 1 h: 3.8
[2]
  Ki: 6370 nM
[3]
  AUC(0-t) at 24 h: 2090 ng·h/mL
[4]
  Ki: 955 nM
[5]
  Vd: 11 L/kg
[6]
  Cmax: 296 ng/mL
Cytochrome P450 2D6
  IC50: 14700 nM
[7]
  half-life: 2.2 h
[8]
  IC50: > 10000 nM
[9]
  Ki: 3120 nM
[10]
  AUC(0-t) at 24 h: 2760 ng·h/mL
[11]
  clearance: 59 mL/min/kg
[12]
  metabolised at 0.5 h, 2.5 µM: 40%
Rattus norvegicus [13]
  Activity: Toxic
[14]
  Kb: 0.02 nM
[15]
  EC50: > 10000 nM
[16]
  Ki: 536 nM
[17]
  Ki: 2900 nM
[18]
  Ki: 1940 nM
[19]
  bioavailability: 75%
Histamine H1 receptor
  Ki: 682 nM
Rattus norvegicus [20]
  Activity: Active
[21]
  Imax: 100%
D(2) dopamine receptor
  Ki: 303 nM
[22]
  Tmax: 1.67 h
Cytochrome P450 3A4
  IC50: 6460 nM
[23]
  metabolised at 0.5 h, 2.5 µM: 0%
[24]
  EC50: > 1000 nM
[25]
  Ki: 800 nM
Rattus norvegicus [26]
  Activity: Active
